Assay [1] relates to Leishmania donovani. Briefly: In vitro leishmanicidal activity determined by measuring 3H thymidine incorporation in promastigotes of Leishmania donovani. Format: functional. Further details: concentration or dose not given beside the values.
Assay [2] in a line: In vivo leishmanicidal activity determined against amastigotes of Leishmania donovani in golden hamsters. Format: functional, Mesocricetus auratus. More on the design: concentration or dose not given beside the values.
Assay [3] has as its system Leishmania donovani. Briefly: In vitro leishmanicidal activity of compound was determined by measuring 3H thymidine incorporation in promastigotes of Leishmania donovani at concentration of 100 uM. It counts as functional.
The test system of assay [4] is Cricetulus griseus. Put plainly: TThe in vivo leishmanicidal activity of compound was determined against amastigotes of Leishmania donovani in golden hamsters (Mesocricetus auratus) at dose of 50 mg/kg for 5 days; Toxic. Format: functional, organism-based. More on the design: dose 50 mg/kg.
Assay [5] has as its system Leishmania donovani. Briefly: In vivo leishmanicidal activity determined against amastigotes of Leishmania donovani in golden hamsters. The settings on record: Mesocricetus auratus; dose or concentration not given here.

Data on 19 molecules can be found in ChEMBL document CHEMBL1150556, “Tetraazaacenaphthene, tetraazaphenalene and 1,3,4-thiadiazole derivatives as potential leishmanicides” (1997).

As for `CCn1c(=N)c2c(=O)n(CC)c(=S)n3c2n(c1=S)CCC3`, the Inhibition is given as 99.2% in assay [1] and 50.7% in assay [2].
As for `N=C(N)c1ccc(OCCCCCOc2ccc(C(=N)N)cc2)cc1` [PENTAMIDINE], the inhibition at 100 µM in assay [3] turned out to be 100%.
For `N#CC(=C1SCCS1)c1nnc(N)s1`, the Inhibition in assay [1] worked out at 18%.
Turning to `CCO/C(O)=C(\C1=NCCN1)c1nn2cc(-c3ccc(Br)cc3)nc2s1`, the values for the Inhibition in assay [1] and in assay [2] were 31% and 0%, respectively.
For `O=c1c2c(=O)n(-c3ccc(F)cc3)c(=S)n3c2n(c(=S)n1-c1ccc(F)cc1)CC3`, in that order: 50% and 0%.
For `CCn1c(=O)c2c(=O)n(CC)c(=O)n3c2n(c1=O)CCC3` the same measures were 58% and 0%.
Regarding `O=c1c2c(=O)n(-c3ccccc3)c(=S)n3c2n(c(=S)n1-c1ccccc1)CC3`, the results for the Inhibition in assay [1] and in assay [2] were 85% and 81.3%, respectively.
For `N=c1c2c(=O)n(-c3ccccc3)c(=S)n3c2n(c(=S)n1-c1ccccc1)CC3`, in that order: 99.3% and 78.6%.
For `Cc1ccccc1-n1c(=O)c2c(=O)n(-c3ccccc3C)c(=O)n3c2n(c1=O)CC3` the same measures were 93% and 0%.
The molecule `CCOC(=O)C(=C1SCCCS1)c1nnc(N)s1` returned an Inhibition in assay [1] of 0%.
As for `CCn1c(=N)c2c(=O)n(CC)c(=S)n3c2n(c1=S)CC3`, the Inhibition in assay [1] stood at 20%; in assay [2] it was 71.2%.
In turn, `N=c1c2c(=O)n(-c3ccc(F)cc3)c(=S)n3c2n(c(=S)n1-c1ccc(F)cc1)CC3` showed an Inhibition in assay [1] of 99.3%. Moreover, the inhibition entry in assay [4] was “Toxic”.
`Cc1ccccc1-n1c(=N)c2c(=O)n(-c3ccccc3C)c(=O)n3c2n(c1=O)CC3` came in with an Inhibition in assay [1] of 7%.
Consider `CCO/C(O)=C(\C1=NCCCN1)c1nnc(N)s1`, for which the Inhibition in assay [1] was found to be 73%; in assay [2], 44.7%.
In assay [1], `CCn1c(=O)c2c(=O)n(CC)c(=S)n3c2n(c1=S)CC3` came in with an Inhibition of 76%.
Still for that read-out and setting: in the case of `CCOC(=O)C(=C1SCCS1)c1nnc(N)s1` it was 0%.
As to `CCO/C(O)=C(\C1=NCCN1)c1nn2cc(-c3ccc(Cl)cc3)nc2s1`, the Inhibition in assay [1] is listed as 40%; in assay [2] it was 0%.
`CCO/C(O)=C(\C1=NCCN1)c1nnc(N)s1` showed an Inhibition in assay [1] of 0%.
In assay [5], Sodium stibogluconate came in with an inhibition of 100%.
